PubChem BioAssay AID1745844 (Carcinogenic Potency Database (CPDB), 2022)
Values joined by “and” are separate entries in the source; they are usually repeats but may differ in a detail not shown here. Identical values can stand only once. Active and inactive are the calls of the source. How the calls were made is not given here.

System: rodent lifetime carcinogenesis bioassay, tumor incidence TD50
Test: chronic cancer bioassays in animals – CPDB, compiled studies (AID 1745844)
[1] = mouse, strain Charles River CD1, females, in drinking water, site: all sites, lesion: all vascular tumors, dosed 52 weeks, study length 52 weeks
[2] = mouse, strain Charles River CD1, males, in drinking water, site: all sites, lesion: all vascular tumors, dosed 52 weeks, study length 52 weeks
[3] = mouse, strain Charles River CD1, males, in drinking water, site: liver, lesion: hepatocellular carcinoma, dosed 52 weeks, study length 52 weeks
[4] = mouse, strain Charles River CD1, males, in drinking water, site: liver, lesion: several types, types named in the paper, dosed 52 weeks, study length 52 weeks
[5] = mouse, strain Charles River CD1, males, in drinking water, site: lung, lesion: alveolar/bronchiolar adenoma, dosed 52 weeks, study length 52 weeks

CN(C)N
TD50 (hamster, strain Syrian Golden, females, in drinking water, site: blood vessels, lesion: several types, types named in the paper, dosed 79 weeks, study length 79 weeks): 620 mg/kg/day | TD50 (hamster, strain Syrian Golden, females, in drinking water, site: cecum, lesion: several types, types named in the paper, dosed 79 weeks, study length 79 weeks): 104 mg/kg/day | TD50 (hamster, strain Syrian Golden, females, in drinking water, site: liver, lesion: several types, types named in the paper, dosed 79 weeks, study length 79 weeks): 620 mg/kg/day | TD50 (hamster, strain Syrian Golden, males, in drinking water, site: blood vessels, lesion: several types, types named in the paper, dosed 91 weeks, study length 91 weeks): 183 mg/kg/day | TD50 (hamster, strain Syrian Golden, males, in drinking water, site: cecum, lesion: adenocarcinoma, dosed 91 weeks, study length 91 weeks): 322 mg/kg/day | TD50 (hamster, strain Syrian Golden, males, in drinking water, site: cecum, lesion: polypoid adenoma, dosed 91 weeks, study length 91 weeks): 372 mg/kg/day | TD50 (hamster, strain Syrian Golden, males, in drinking water, site: cecum, lesion: several types, types named in the paper, dosed 91 weeks, study length 91 weeks): 155 mg/kg/day | TD50 (hamster, strain Syrian Golden, males, in drinking water, site: liver, lesion: angioma, dosed 91 weeks, study length 91 weeks): 975 mg/kg/day | TD50 (hamster, strain Syrian Golden, males, in drinking water, site: liver, lesion: angiosarcoma, dosed 91 weeks, study length 91 weeks): 242 mg/kg/day | TD50 (hamster, strain Syrian Golden, males, in drinking water, site: liver, lesion: several types, types named in the paper, dosed 91 weeks, study length 91 weeks): 183 mg/kg/day | TD50 [1]: 26 mg/kg/day | carcinogen call [1]: negative (inactive) | TD50 (mouse, strain Charles River CD1, females, in drinking water, site: all sites, lesion: all vascular tumors, dosed 104 weeks, study length 104 weeks): 11.1 mg/kg/day | TD50 (mouse, strain Charles River CD1, females, in drinking water, site: all sites, lesion: hemangioma, dosed 52 weeks, study length 52 weeks): 39.7 mg/kg/day | TD50 (mouse, strain Charles River CD1, females, in drinking water, site: all sites, lesion: hemangiosarcoma, dosed 52 weeks, study length 52 weeks): 80.8 mg/kg/day | TD50 (mouse, strain Charles River CD1, females, in drinking water, site: liver, lesion: all vascular tumors, dosed 52 weeks, study length 52 weeks): 26 mg/kg/day | TD50 (mouse, strain Charles River CD1, females, in drinking water, site: liver, lesion: hemangioma, dosed 52 weeks, study length 52 weeks): 39.7 mg/kg/day | TD50 (mouse, strain Charles River CD1, females, in drinking water, site: liver, lesion: hemangiosarcoma, dosed 52 weeks, study length 52 weeks): 80.8 mg/kg/day | TD50 (mouse, strain Charles River CD1, females, in drinking water, site: liver, lesion: hepatocellular adenoma, dosed 104 weeks, study length 104 weeks): 98.7 mg/kg/day and 63.6 mg/kg/day | TD50 (mouse, strain Charles River CD1, females, in drinking water, site: liver, lesion: hepatocellular carcinoma, dosed 104 weeks, study length 104 weeks): 340 mg/kg/day | carcinogen call (mouse, strain Charles River CD1, females, in drinking water, site: liver, lesion: one or several types, types not named, dosed 52 weeks, study length 52 weeks): negative (inactive) | TD50 (mouse, strain Charles River CD1, females, in drinking water, site: liver, lesion: several types, types named in the paper, dosed 104 weeks, study length 104 weeks): 74.7 mg/kg/day | TD50 (mouse, strain Charles River CD1, females, in drinking water, site: lung, lesion: alveolar/bronchiolar carcinoma, dosed 52 weeks, study length 52 weeks): 81.5 mg/kg/day | TD50 (mouse, strain Charles River CD1, females, in drinking water, site: lung, lesion: several types, types named in the paper, dosed 52 weeks, study length 52 weeks): 3.68 mg/kg/day | TD50 [2]: 12.6 mg/kg/day | carcinogen call [2]: negative (inactive) | TD50 (mouse, strain Charles River CD1, males, in drinking water, site: all sites, lesion: all vascular tumors, dosed 104 weeks, study length 104 weeks): 6.13 mg/kg/day | TD50 (mouse, strain Charles River CD1, males, in drinking water, site: all sites, lesion: hemangioma, dosed 52 weeks, study length 52 weeks): 33.4 mg/kg/day | TD50 (mouse, strain Charles River CD1, males, in drinking water, site: all sites, lesion: hemangioma, dosed 104 weeks, study length 104 weeks): 339 mg/kg/day | TD50 (mouse, strain Charles River CD1, males, in drinking water, site: all sites, lesion: hemangiosarcoma, dosed 52 weeks, study length 52 weeks): 21.7 mg/kg/day | TD50 (mouse, strain Charles River CD1, males, in drinking water, site: liver, lesion: all vascular tumors, dosed 52 weeks, study length 52 weeks): 12.6 mg/kg/day | TD50 (mouse, strain Charles River CD1, males, in drinking water, site: liver, lesion: all vascular tumors, dosed 104 weeks, study length 104 weeks): 6.47 mg/kg/day | TD50 (mouse, strain Charles River CD1, males, in drinking water, site: liver, lesion: hemangioma, dosed 52 weeks, study length 52 weeks): 33.4 mg/kg/day | TD50 (mouse, strain Charles River CD1, males, in drinking water, site: liver, lesion: hemangioma, dosed 104 weeks, study length 104 weeks): 339 mg/kg/day | TD50 (mouse, strain Charles River CD1, males, in drinking water, site: liver, lesion: hemangiosarcoma, dosed 52 weeks, study length 52 weeks): 21.7 mg/kg/day | TD50 (mouse, strain Charles River CD1, males, in drinking water, site: liver, lesion: hepatocellular adenoma, dosed 52 weeks, study length 52 weeks): 26.7 mg/kg/day (inactive) | TD50 [3]: 10.8 mg/kg/day | carcinogen call [3]: negative (inactive) | TD50 (mouse, strain Charles River CD1, males, in drinking water, site: liver, lesion: hepatocellular carcinoma, dosed 104 weeks, study length 104 weeks): 11.9 mg/kg/day and 33.4 mg/kg/day | TD50 [4]: 6.28e+06 mg/kg/day | carcinogen call [4]: negative (inactive) | TD50 [5]: 5.18 mg/kg/day | carcinogen call [5]: negative (inactive) | TD50 (mouse, strain Charles River CD1, males, in drinking water, site: lung, lesion: alveolar/bronchiolar carcinoma, dosed 52 weeks, study length 52 weeks): 67.4 mg/kg/day | TD50 (mouse, strain Charles River CD1, males, in drinking water, site: lung, lesion: alveolar/bronchiolar carcinoma, dosed 104 weeks, study length 104 weeks): 89 mg/kg/day and 33.4 mg/kg/day | TD50 (mouse, strain Charles River CD1, males, in drinking water, site: lung, lesion: several types, types named in the paper, dosed 52 weeks, study length 52 weeks): 4.33 mg/kg/day | TD50 (mouse, strain Charles River CD1, males, in drinking water, site: lung, lesion: several types, types named in the paper, dosed 104 weeks, study length 104 weeks): 39.6 mg/kg/day and 26.4 mg/kg/day | TD50 (mouse, strain Swiss albino, females, in drinking water, site: blood vessels, lesion: angiosarcoma, dosed 72 weeks, study length 72 weeks): 3.57 mg/kg/day | TD50 (mouse, strain Swiss albino, females, in drinking water, site: blood vessels, lesion: several types, types named in the paper, dosed 72 weeks, study length 72 weeks): 3.65 mg/kg/day | TD50 (mouse, strain Swiss albino, females, in drinking water, site: kidney, lesion: adenoma, dosed 72 weeks, study length 72 weeks): 148 mg/kg/day | TD50 (mouse, strain Swiss albino, females, in drinking water, site: lung, lesion: adenocarcinoma, dosed 72 weeks, study length 72 weeks): 51.6 mg/kg/day | TD50 (mouse, strain Swiss albino, females, in drinking water, site: lung, lesion: adenoma, dosed 72 weeks, study length 72 weeks): 5.58 mg/kg/day | TD50 (mouse, strain Swiss albino, females, in drinking water, site: lung, lesion: several types, types named in the paper, dosed 72 weeks, study length 72 weeks): 5.69 mg/kg/day | TD50 (mouse, strain Swiss albino, males, in drinking water, site: blood vessels, lesion: angiosarcoma, dosed 62 weeks, study length 62 weeks): 2.09 mg/kg/day | TD50 (mouse, strain Swiss albino, males, in drinking water, site: blood vessels, lesion: several types, types named in the paper, dosed 62 weeks, study length 62 weeks): 2.11 mg/kg/day | TD50 (mouse, strain Swiss albino, males, in drinking water, site: kidney, lesion: adenoma, dosed 62 weeks, study length 62 weeks): 19.5 mg/kg/day | TD50 (mouse, strain Swiss albino, males, in drinking water, site: liver, lesion: hepatoma, dosed 62 weeks, study length 62 weeks): 30.4 mg/kg/day | TD50 (mouse, strain Swiss albino, males, in drinking water, site: lung, lesion: adenocarcinoma, dosed 62 weeks, study length 62 weeks): 46.6 mg/kg/day | TD50 (mouse, strain Swiss albino, males, in drinking water, site: lung, lesion: adenoma, dosed 62 weeks, study length 62 weeks): 2.62 mg/kg/day | TD50 (mouse, strain Swiss albino, males, in drinking water, site: lung, lesion: several types, types named in the paper, dosed 62 weeks, study length 62 weeks): 2.62 mg/kg/day | TD50 (mouse, strain Swiss, females, by gavage, site: lung, lesion: one or several types, types not named, dosed 40 weeks, study length 55 weeks): 16 mg/kg/day | carcinogen call (rat, strain Fischer 344, females, in drinking water, site: liver, lesion: hemangioma, dosed 52 weeks, study length 52 weeks): negative (inactive) | TD50 (rat, strain Fischer 344, females, in drinking water, site: liver, lesion: hepatocellular adenoma, dosed 104 weeks, study length 104 weeks): 184 mg/kg/day (inactive) | TD50 (rat, strain Fischer 344, females, in drinking water, site: liver, lesion: hepatocellular carcinoma, dosed 104 weeks, study length 104 weeks): 40.7 mg/kg/day (inactive) | TD50 (rat, strain Fischer 344, females, in drinking water, site: liver, lesion: several types, types named in the paper, dosed 104 weeks, study length 104 weeks): 30.9 mg/kg/day (inactive) | TD50 (rat, strain Fischer 344, females, in drinking water, site: pituitary gland, lesion: adenoma, dosed 104 weeks, study length 104 weeks): 14.8 mg/kg/day (inactive) | TD50 (rat, strain Fischer 344, males, in drinking water, site: liver, lesion: hepatocellular adenoma, dosed 104 weeks, study length 104 weeks): 205 mg/kg/day (inactive) | TD50 (rat, strain Fischer 344, males, in drinking water, site: liver, lesion: hepatocellular carcinoma, dosed 104 weeks, study length 104 weeks): 650 mg/kg/day (inactive) | carcinogen call (rat, strain Fischer 344, males, in drinking water, site: liver, lesion: one or several types, types not named, dosed 52 weeks, study length 52 weeks): negative (inactive) | TD50 (rat, strain Fischer 344, males, in drinking water, site: liver, lesion: several types, types named in the paper, dosed 104 weeks, study length 104 weeks): 155 mg/kg/day (inactive)
